From patent US20190175528A1, “INHIBITION OF BIOFILM ORGANISMS” (NovaBiotics Limited, priority 2009, published 2019)
Numbered stars: 1 amine (or outer) side, 2 acyl side, 3 side chain; on linkers, the order of the positions; unused ones are H or OH. Ends that are not written are not given here. Peptide text beside a SMILES is read from it. Cysteamide = C(CS[*:3])N[*:1]

Assays:
[1] = tested on: S. epidermidis ATCC12228; type: cell-based, Staphylococcus epidermidis; conditions: ATCC12228, 24 h
Description: (§1) The bacterial inoculum was established by the dilution method from actively-growing cultures in Mueller-Hinton broth, standardized with 0.5 McFarland turbidity standard as described in the CLSI method M26-A.
(§2) To determine the prevention of biofilm formation, both the bacterial inoculum and the antimicrobial agents were added simultaneously to the plates. The plates were incubated at 37° C. for 24 h and the optical density was read at 625 nm on a microtitre plate reader (BioTek Powerwave XS, Winooski, USA). The MIC was obtained as the lowest concentration of antimicrobial showing total inhibition of bacterial growth.

[2] = tested on: S. aureus ATCC25923; type: cell-based, Staphylococcus aureus; conditions: ATCC25923, 24 h
Description: as §1, §2

[3] = tested on: S. aureus DSM 11729 (MRSA); assay: microbe, parasite or virus in culture; type: cell-based, Staphylococcus aureus; conditions: DSM 11729, 24 h; for MIC pH5.5, 320 mM NaCl, S. aureus 11729 / MIC pH5.5, S. aureus 11729: pH 5.5
Description: as §1
(§3) To determine the prevention of biofilm formation, both the bacterial inoculum and the antimicrobial agents were added simultaneously to the plates. The plates were incubated at 37° C. for 24 h and the optical density was read at 625 nm on a microtitre plate reader (BioTek Powerwave XS, Winooski, USA). The MIC was obtained as the lowest concentration of antimicrobial showing total inhibition of bacterial growth. […]
(§4) FIC=MICA[combination]/MICA[alone]+MICB[combination]/MICB[alone] […]
(§5) In order to assess for the prevention of biofilm formation by both Gram-positive and Gram-negative bacteria, the bacterial inoculum and antimicrobial agents were added simultaneously in the plates. The range of concentrations of antimicrobial agents was 0-500 μg/ml NP108 and 0-320 μg/ml cysteamine against the Gram-negative bacteria P. aeruginosa ATCC BAA-47 and 0-1000 μg/ml NP108 and 0-320 μg/ml cysteamine against the Gram-positive MRSA.

[4] = tested on: P. aeruginosa DSMZ1128; type: cell-based, Pseudomonas aeruginosa; conditions: DSMZ1128, 24 h
Description: as §1, §2

[5] = tested on: P. aeruginosa DSMZ1299; type: cell-based, Pseudomonas aeruginosa; conditions: for MIC at pH 7, P. aeruginosa D5MZ1299: DSMZ1299, 24 h
Description: as §1, §2

[6] = tested on: P. aeruginosa ATCC BAA-47; assay: microbe, parasite or virus in culture; type: cell-based, Pseudomonas aeruginosa; conditions: ATCC BAA-47, 24 h; for MIC pH5.5, 320 mM NaCl, P. aeruginosa ATCCBAA-47 / MIC pH5.5, P. aeruginosa ATCCBAA-47: pH 5.5
Description: as §1, §3, §4, §5

[7] = tested on: S. epidermidis ATCC12228; conditions: ATCC12228, pH 7
[8] = tested on: S. aureus ATCC25923; conditions: ATCC25923, pH 7
[9] = tested on: S. aureus DSM 11729 (MRSA); conditions: for MBC at pH5.5, S. aureus 11729 / MBC pH5.5, 320 mM NaCl, S. aureus 11729: DSM 11729, pH 5.5; for MBC following MIC at pH 7, S. aureus DSMZ11729: DSM 11729, pH 7
[10] = tested on: P. aeruginosa DSMZ1128; conditions: DSMZ1128, pH 7
[11] = tested on: P. aeruginosa DSMZ1299; conditions: DSMZ1299, pH 7
[12] = tested on: P. aeruginosa ATCC BAA-47; conditions: for MBC at pH5.5, P. aeruginosa ATCCBAA-47 / MBC pH5.5, 320 mM NaCl, P. aeruginosa ATCCBAA-47: ATCC BAA-47, pH 5.5; for MBC following MIC at pH 7, P. aeruginosa ATCCBAA-47: ATCC BAA-47, pH 7

Q: HHHFRFFFRFRRR [NP438, HHHFRFFFRFRRR] was tested. Which “MIC at pH 7, S. epidermidis ATCC12228” value [1] did it give?
A: <7.8 μg/ml

Q: And the “MIC at pH 7, S. aureus ATCC25923” value [2]?
A: >500 μg/ml

Q: What about the “MIC pH5.5, 320 mM NaCl, S. aureus 11729” value [3] of the same compound?
A: >500 μg/ml

Q: And the “MIC pH5.5, S. aureus 11729” value [3]?
A: >500 μg/ml

Q: And the “MIC at pH 7, S. aureus DSMZ11729” value [3]?
A: >500 μg/ml

Q: What about the “MIC at pH 7, P. aeruginosa DSMZ1128” value [4] of the same compound?
A: >500 μg/ml

Q: What about the “MIC at pH 7, P. aeruginosa D5MZ1299” value [5] of the same compound?
A: 500 μg/ml

Q: And the “MIC pH5.5, 320 mM NaCl, P. aeruginosa ATCCBAA-47” value [6]?
A: 62.5 μg/ml

Q: What about the “MIC pH5.5, P. aeruginosa ATCCBAA-47” value [6] of the same compound?
A: 125 μg/ml

Q: And the “MIC at pH 7, P. aeruginosa ATCCBAA-47” value [6]?
A: >500 μg/ml

Q: What about the “MBC following MIC at pH 7, S. epidermidis ATCC12228” value [7] of the same compound?
A: 125 μg/ml

Q: And the “MBC following MIC at pH 7, S. aureus ATCC25923” value [8]?
A: >500 μg/ml

Q: What about the “MBC at pH5.5, S. aureus 11729” value [9] of the same compound?
A: >500 μg/ml

Q: And the “MBC pH5.5, 320 mM NaCl, S. aureus 11729” value [9]?
A: >500 μg/ml

Q: What about the “MBC following MIC at pH 7, S. aureus DSMZ11729” value [9] of the same compound?
A: >500 μg/ml

Q: And the “MBC following MIC at pH 7, P. aeruginosa DSMZ1128” value [10]?
A: >500 μg/ml

Q: What about the “MBC following MIC at pH 7, P. aeruginosa DSMZ1299” value [11] of the same compound?
A: >500 μg/ml

Q: What about the “MBC at pH5.5, P. aeruginosa ATCCBAA-47” value [12] of the same compound?
A: >500 μg/ml

Q: What about the “MBC pH5.5, 320 mM NaCl, P. aeruginosa ATCCBAA-47” value [12] of the same compound?
A: >500 μg/ml

Q: And the “MBC following MIC at pH 7, P. aeruginosa ATCCBAA-47” value [12]?
A: >500 μg/ml

Q: `N=C(N)NCCC[C@H](NC(=O)[C@H](CCCNC(=N)N)NC(=O)[C@H](CCCNC(=N)N)NC(=O)[C@H](CCCNC(=N)N)NC(=O)[C@@H](N)CCCNC(=N)N)C(=O)NCCS` [NP457, RRRRR-cysteamine] (H-RRRRR-Cysteamide; N-terminus assumed) was tested. Which “MIC at pH 7, S. epidermidis ATCC12228” value [1] did it give?
A: 31.25 μg/ml

Q: And the “MIC at pH 7, S. aureus ATCC25923” value [2]?
A: 125 μg/ml

Q: And the “MIC pH5.5, 320 mM NaCl, S. aureus 11729” value [3]?
A: >500 μg/ml

Q: What about the “MIC pH5.5, S. aureus 11729” value [3] of the same compound?
A: >500 μg/ml

Q: What about the “MIC at pH 7, S. aureus DSMZ11729” value [3] of the same compound?
A: 125 μg/ml

Q: What about the “MIC at pH 7, P. aeruginosa DSMZ1128” value [4] of the same compound?
A: >500 μg/ml

Q: And the “MIC at pH 7, P. aeruginosa D5MZ1299” value [5]?
A: >500 μg/ml

Q: What about the “Exp#3, P. aeruginosa DSMZ1299 (quantity not clearly headed)” value ([5]; Exp#3) of the same compound?
A: >500 µg/mL

Q: And the “MIC pH5.5, 320 mM NaCl, P. aeruginosa ATCCBAA-47” value [6]?
A: >500 μg/ml

Q: And the “MIC pH5.5, P. aeruginosa ATCCBAA-47” value [6]?
A: >500 μg/ml

Q: What about the “MIC at pH 7, P. aeruginosa ATCCBAA-47” value [6] of the same compound?
A: 250 μg/ml

Q: And the “MBC following MIC at pH 7, S. epidermidis ATCC12228” value [7]?
A: 125 (2) μg/ml

Q: And the “MBC following MIC at pH 7, S. aureus ATCC25923” value [8]?
A: 62.5 μg/ml

Q: And the “MBC at pH5.5, S. aureus 11729” value [9]?
A: >500 μg/ml

Q: And the “MBC pH5.5, 320 mM NaCl, S. aureus 11729” value [9]?
A: >500 μg/ml

Q: What about the “MBC following MIC at pH 7, S. aureus DSMZ11729” value [9] of the same compound?
A: 125 (2) μg/ml

Q: What about the “MBC following MIC at pH 7, P. aeruginosa DSMZ1128” value [10] of the same compound?
A: >500 μg/ml

Q: What about the “MBC following MIC at pH 7, P. aeruginosa DSMZ1299” value [11] of the same compound?
A: >500 μg/ml

Q: And the “MBC at pH5.5, P. aeruginosa ATCCBAA-47” value [12]?
A: >500 μg/ml

Q: And the “MBC pH5.5, 320 mM NaCl, P. aeruginosa ATCCBAA-47” value [12]?
A: >500 μg/ml

Q: And the “MBC following MIC at pH 7, P. aeruginosa ATCCBAA-47” value [12]?
A: >500 μg/ml

Q: Which “MIC at pH 7, S. epidermidis ATCC12228” value [1] does the source give for `N=C(N)NCCC[C@H](NC(=O)[C@H](CCCCN)NC(=O)[C@@H]1CCCN1C(=O)[C@H](CCCNC(=N)N)NC(=O)[C@H](CCCNC(=N)N)NC(=O)[C@@H]1CCCN1C(=O)[C@H](CCCCN)NC(=O)[C@H](CCCNC(=N)N)NC(=O)[C@H](CCCNC(=N)N)NC(=O)[C@@H]1CCCN1C(=O)[C@H](CCCCN)NC(=O)[C@@H](N)CCCCN)C(=O)N[C@@H](CCCCN)C(=O)N[C@@H](CCCCN)C(=O)NCCS` [NP449, KKPRRKPRRPKRKK-cysteamine] (H-KKPRRKPRRPKRKK-Cysteamide; N-terminus assumed) here?
A: 31.25 μg/ml

Q: And the “MIC at pH 7, S. aureus ATCC25923” value [2]?
A: 250 μg/ml

Q: And the “MIC pH5.5, 320 mM NaCl, S. aureus 11729” value [3]?
A: >500 μg/ml

Q: What about the “MIC pH5.5, S. aureus 11729” value [3] of the same compound?
A: >500 μg/ml

Q: And the “MIC at pH 7, S. aureus DSMZ11729” value [3]?
A: 125 μg/ml

Q: What about the “MIC at pH 7, P. aeruginosa DSMZ1128” value [4] of the same compound?
A: 250 μg/ml

Q: And the “MIC at pH 7, P. aeruginosa D5MZ1299” value [5]?
A: 125 μg/ml

Q: And the “MIC pH5.5, 320 mM NaCl, P. aeruginosa ATCCBAA-47” value [6]?
A: >500 μg/ml

Q: And the “MIC pH5.5, P. aeruginosa ATCCBAA-47” value [6]?
A: >500 μg/ml

Q: And the “MIC at pH 7, P. aeruginosa ATCCBAA-47” value [6]?
A: 250 μg/ml

Q: And the “MBC following MIC at pH 7, S. epidermidis ATCC12228” value [7]?
A: 125 μg/ml

Q: What about the “MBC following MIC at pH 7, S. aureus ATCC25923” value [8] of the same compound?
A: >500 μg/ml

Q: What about the “MBC at pH5.5, S. aureus 11729” value [9] of the same compound?
A: >500 μg/ml

Q: What about the “MBC pH5.5, 320 mM NaCl, S. aureus 11729” value [9] of the same compound?
A: >500 μg/ml

Q: What about the “MBC following MIC at pH 7, S. aureus DSMZ11729” value [9] of the same compound?
A: 250 μg/ml

Q: What about the “MBC following MIC at pH 7, P. aeruginosa DSMZ1128” value [10] of the same compound?
A: 500 (2) μg/ml

Q: What about the “MBC following MIC at pH 7, P. aeruginosa DSMZ1299” value [11] of the same compound?
A: 250 (2) μg/ml

Q: And the “MBC at pH5.5, P. aeruginosa ATCCBAA-47” value [12]?
A: >500 μg/ml

Q: What about the “MBC pH5.5, 320 mM NaCl, P. aeruginosa ATCCBAA-47” value [12] of the same compound?
A: >500 μg/ml

Q: What about the “MBC following MIC at pH 7, P. aeruginosa ATCCBAA-47” value [12] of the same compound?
A: >500 μg/ml
